Test results reported in article PMC6949133, “Application of a novel regulatable Cre recombinase system to define the role of liver and gut metabolism in drug oral bioavailability” (The Biochemical journal, 2015).

Legend:
[1] = In vivo pharmacokinetics of probe drugs in WT and ERL (POR-deleted) mice, blood LC-MS/MS; details: for Cl / Cmax: mean ± S.D., n=3; for Cmax: po
Description: WT and ERL mice (n = 3) were pre-treated with corn oil or 3MC (4 or 40 mg/kg). A single dose of midazolam (5 mg/kg p.o.), or nelfinavir (50 mg/kg p.o.) or paroxetine (10 mg/kg p.o.) was administered on day 14 after 3MC treatment. Whole blood (10 μl) was taken from the tail vein at timed intervals after drug administration and transferred into a tube containing heparin (10 μl, 15 IU/ml).
For midazolam analysis, internal standard solution (10 μl; 500 ng of caffeine and 500 ng of resorpine) was added and proteins were precipitated using methanol (75 μl), followed by 8% sulfosalicylic acid (55 μl). Samples were mixed for 1 min and centrifuged at 13 000 g for 5 min. The supernatant was analysed for midazolam and the two internal standards by LC–MS/MS, as described previously. Standard curves were constructed by spiking blank blood samples with known amounts of midazolam. Extraction and protein precipitation were carried out as outlined above for the test samples.
For nelfinavir and paroxetine analysis, mouse blood extraction was performed by a method based on protein precipitation using acetonitrile containing sulfadimethoxine (100 ng/ml) as internal standard. Samples were vortex mixed for 1 min followed by centrifugation at 2800 g for 10 min. Supernatants were analysed by UPLC–MS/MS using a Xevo TQs mass spectrometer (Waters). Nelfinavir, paroxetine and sulfadimethoxine were separated on an Acquity UPLC BEH C18 column (1.7 μm particle size, 50 × 2.1 mm i.d.) by gradient elution with acetonitrile and water at a flow rate 0.6 ml/min. The cycle time of each analysis was 3 min. Matrix effects were assessed by dilution. Quantification of the analytes was performed in electrospray positive ionization mode using multiple reaction monitoring.
Pharmacokinetic parameters were calculated using WinNonLin software, version 3.1. A simple non-compartmental model was used to calculate the area under the curve (AUC), terminal half-life, Cmax and clearance. Statistical analysis of pharmacokinetic data was carried out using Student’s t tests.

[2] = test system: POR; assay: POR activity in microsomes of treated ERL mice, cytochrome c reduction; assay type: in vivo, mouse
Description: (§1) The low levels of cytochrome c reduction detected in the small intestine were further decreased (by 78%) in ERL animals treated with 40 mg/kg 3MC (36.2 ± 15.6 compared with 8.2 ± 3.3 nmol cytochrome c reduced/min/mg respectively, n = 3, mean + S.D., P < 0.01). No P450 activity was detected in small intestinal microsomes from either WT or ERL animals.

[3] = test system: P450; assay: P450-mediated substrate turnover in liver of treated ERL mice; assay type: in vivo, mouse; details: 3MC 40 mg/kg, n=6
Description: as §1

[4] = test system: POR; assay: POR expression by Western blot/densitometry in tissues of ERL mice after Cyp1a1 inducer; assay type: in vivo, mouse
Description: (§2) Single doses of βNF (80 mg/kg body weight as a suspension in corn oil) were administered intraperitoneally (i.p.). Doses of 3MC between 0.5 and 40 mg/kg body weight (single injections) were administered i.p. in corn oil; in some experiments, three daily doses were administered, as detailed in the Figure legends. Mice were killed at the same time of day by a rising concentration of CO2 9 or 14 days after dosing and the following tissues removed and snap-frozen in liquid nitrogen: liver, lung, kidney, small intestine, large intestine, spleen and skin. Samples were then stored at − 80°C until processing for sub-cellular fractions.
Microsomal fractions were prepared as described previously and stored at − 70°C until required. Microsomal protein concentrations were determined using the Bio-Rad Protein Assay Reagent (Bio-Rad Laboratories) and Western blot analysis was preformed as described previously using polyclonal antisera to rat P450s and POR [27, 28]. Immunoreactive proteins were detected using horseradish peroxidase (HRP)-conjugated polyclonal goat anti-rabbit, anti-mouse or anti-sheep immunoglobulin secondary antibodies, as appropriate (Dako). Bands were visualized using Immobilon™ chemiluminescent HRP-conjugated substrate (Millipore) and a FUJIFILM LAS-3000 mini imaging system (Fujifilm UK.). Densitometric analysis was performed using Multi Gauge V2.2 software (Fujifilm UK).

[5] = Tolerability and gross liver phenotype of ERL mice after inducer dosing; assay type: in vivo, mouse
Description: as §2
The effects of a single dose of the polycyclic aromatic hydrocarbon AhR ligand βNF (80 mg/kg i.p.) on ERL mice were investigated in initial range-finding experiments (Figure 2A). Liver and small intestine tissues were harvested 9 or 14 days after dosing. […] On post mortem examination, βNF treated ERL mice had pale, mottled, enlarged livers which weighed approximately 60% more than those of either corn oil treated ERL mice or βNF treated WT animals. This phenotype is characteristic of POR deletion and is also observed in HRN and RCN animals. The effect on POR expression in the ERL liver and small intestine of a single dose of βNF (80 mg/kg i.p.) was similar to that observed in RCN mice following four daily doses (compare Figure 2A with Figure 1 of Finn et al.).
Both ERL and WT animals lost weight in response to this treatment.

[6] = test system: PhIP-DNA adducts in the colon; parameters: method as in PMID 21940903; details: RCN mice dosed orally with PhIP 2 weeks after 3MC, compared with PhIP alone; cited from earlier work
[7] = liver and gut POR deletion compared with WT/control
[8] = liver only POR deletion relative to control

Compound: Fc1ccc([C@@H]2CCNC[C@H]2COc2ccc3c(c2)OCO3)cc1 [Paroxetine, paroxetine]
- increase in half-life ([1]; ERL (Por^lox/lox/Cre^Cyp1a1-KI), control: WT (Por^lox/lox), mouse, in vivo): 3.5 fold
- change in Cmax ([1]; mouse, in vivo): essentially unchanged
- decrease in clearance ([1]; mouse, in vivo): ~ 3 fold
- increase in AUC ([1]; mouse, in vivo): 1.5 fold

Compound: Cc1ncc2n1-c1ccc(Cl)cc1C(c1ccccc1F)=NC2 [Midazolam, midazolam]
- Cl ([1]; Control (WT + corn oil), single p.o. dose nelfinavir 50 mg/kg, paroxetine 10 mg/kg or midazolam 5 mg/kg): 113 ± 35 mL/min/kg
- Cmax ([1]; ERL (Por^lox/lox/Cre^Cyp1a1-KI), mouse, in vivo, Liver and gut null (ERL + 3MC 40 mg/kg, day 14), single p.o. dose nelfinavir 50, paroxetine 10 or midazolam 5 mg/kg): 4460 ± 1530 ng/mL
- Cmax ([1]; ERL (Por^lox/lox/Cre^Cyp1a1-KI), mouse, in vivo, Liver null (ERL + 3MC 4 mg/kg, day 14), single p.o. dose nelfinavir 50, paroxetine 10 or midazolam 5 mg/kg): 1850 ± 340 ng/mL
- Cl ([1]; Liver and gut null (ERL + 3MC 40 mg/kg, day 14), single p.o. dose nelfinavir 50, paroxetine 10 or midazolam 5 mg/kg): 4.3 ± 0.9^••◦ ml/min/kg
- Cl ([1]; Liver null (ERL + 3MC 4 mg/kg, day 14), single p.o. dose nelfinavir 50, paroxetine 10 or midazolam 5 mg/kg): 13 ± 5 mL/min/kg
- Cmax ([1]; WT (Por^lox/lox), mouse, in vivo, Control (WT + corn oil), single p.o. dose nelfinavir 50 mg/kg, paroxetine 10 mg/kg or midazolam 5 mg/kg): 610 ± 110 ng/mL
- increase in AUC [1, 7]: 22.9 fold
- increase in Cmax [1, 7]: 7.3 fold
- increase in half-life [1, 7]: 1.6 fold
- decrease in clearance ([1]; liver and gut POR deletion relative to control): 26.3 fold
- decrease in clearance [1, 8]: 9 fold
- increase in AUC [1, 8]: 9 fold
- increase in Cmax [1, 8]: 3 fold

Compound: Cc1ccc2cc3c(ccc4ccccc43)c3c2c1CC3 [3MC, 3-methylcholanthrene]
- decrease of cytochrome c reduction in small intestine ([2]; ERL animals treated with 40 mg/kg 3MC): 78%
- hepatic POR activity as % of WT ([2]; livers from ERL mice 14 days after 3MC 40 mg/kg): approximately 4%
- hepatic POR activity (cytochrome c reduction) ([2]; livers from ERL mice 14 days after 3MC 40 mg/kg, n=3, mean ± S.D., WT 60.3 ± 20.8): 2.2 ± 1.9 nmol cytochrome c reduced/min/mg
- cytochrome c reduction in small intestine ([2]; small intestine of ERL animals treated with 40 mg/kg 3MC, n=3, mean ± S.D., comparator 36.2 ± 15.6): 8.2 ± 3.3 nmol cytochrome c reduced/min/mg
- reduction in P450-mediated turnover of 7-benzyloxy-4-(trifluoromethyl)-coumarin [3]: 95%
- reduction in P450-mediated turnover of methoxyresorufin [3]: 70%
- residual hepatic POR expression (densitometric quantification) ([4]; ERL mice, 3MC 40 mg/kg i.p., results not shown): < 4%
- single dose required for knockdown in both liver and small intestine ([4]; ERL mice, i.p.): 20 to 40 mg/kg
- single dose for knockdown of hepatic POR expression ([4]; ERL mice, i.p., liver only): 4 mg/kg
- POR knockdown in large intestine ([4]; ERL mice, three daily doses of 3MC 40 mg/kg/day i.p., harvested 14 days after initial dose): 50%
- dose needed to knockdown POR in liver of ERL mice, lower than in RCN animals ([4]; ERL vs RCN animals (ref 20)): 10 fold
- increase in liver weight ([5]; single dose 3MC 40 mg/kg i.p., post mortem): 60–90%

Compound: O=c1cc(-c2ccccc2)oc2ccc3ccccc3c12 [βNF, β-naphthoflavone]
- body weight loss over the course of the treatment ([5]; single dose βNF 80 mg/kg i.p.): 2 to 4 g
- increase in liver weight vs corn oil treated ERL or βNF treated WT ([5]; single dose βNF 80 mg/kg i.p., 9 or 14 days): approximately 60%

Compound: Cn1c(N)nc2ncc(-c3ccccc3)cc21 [PhIP, 2-amino-1-methyl-6-phenylimidazo[4,5-b]pyridine]
- reduction of adduct formation in the colon [6]: 50%
